According to patent publication US20030199523A1, “Heterocyclic calcium in channel blockers” (priority 2002, published 2003):

Key:
Format in all cases: cell-based
[1] = biological target: T1, rat brain N-type calcium channel (α1B+α2δ+β1b) (Rattus norvegicus, UniProt Q02294); assay: Whole cell patch clamp block of N-type calcium channels expressed in HEK 293 cells; conditions: step to +20 mV from holding potential −80 mV, 0.1 Hz, 5 mM barium external solution
T1 construct: expressed in transfected cells
T1 sequence (Q02294 whole entry): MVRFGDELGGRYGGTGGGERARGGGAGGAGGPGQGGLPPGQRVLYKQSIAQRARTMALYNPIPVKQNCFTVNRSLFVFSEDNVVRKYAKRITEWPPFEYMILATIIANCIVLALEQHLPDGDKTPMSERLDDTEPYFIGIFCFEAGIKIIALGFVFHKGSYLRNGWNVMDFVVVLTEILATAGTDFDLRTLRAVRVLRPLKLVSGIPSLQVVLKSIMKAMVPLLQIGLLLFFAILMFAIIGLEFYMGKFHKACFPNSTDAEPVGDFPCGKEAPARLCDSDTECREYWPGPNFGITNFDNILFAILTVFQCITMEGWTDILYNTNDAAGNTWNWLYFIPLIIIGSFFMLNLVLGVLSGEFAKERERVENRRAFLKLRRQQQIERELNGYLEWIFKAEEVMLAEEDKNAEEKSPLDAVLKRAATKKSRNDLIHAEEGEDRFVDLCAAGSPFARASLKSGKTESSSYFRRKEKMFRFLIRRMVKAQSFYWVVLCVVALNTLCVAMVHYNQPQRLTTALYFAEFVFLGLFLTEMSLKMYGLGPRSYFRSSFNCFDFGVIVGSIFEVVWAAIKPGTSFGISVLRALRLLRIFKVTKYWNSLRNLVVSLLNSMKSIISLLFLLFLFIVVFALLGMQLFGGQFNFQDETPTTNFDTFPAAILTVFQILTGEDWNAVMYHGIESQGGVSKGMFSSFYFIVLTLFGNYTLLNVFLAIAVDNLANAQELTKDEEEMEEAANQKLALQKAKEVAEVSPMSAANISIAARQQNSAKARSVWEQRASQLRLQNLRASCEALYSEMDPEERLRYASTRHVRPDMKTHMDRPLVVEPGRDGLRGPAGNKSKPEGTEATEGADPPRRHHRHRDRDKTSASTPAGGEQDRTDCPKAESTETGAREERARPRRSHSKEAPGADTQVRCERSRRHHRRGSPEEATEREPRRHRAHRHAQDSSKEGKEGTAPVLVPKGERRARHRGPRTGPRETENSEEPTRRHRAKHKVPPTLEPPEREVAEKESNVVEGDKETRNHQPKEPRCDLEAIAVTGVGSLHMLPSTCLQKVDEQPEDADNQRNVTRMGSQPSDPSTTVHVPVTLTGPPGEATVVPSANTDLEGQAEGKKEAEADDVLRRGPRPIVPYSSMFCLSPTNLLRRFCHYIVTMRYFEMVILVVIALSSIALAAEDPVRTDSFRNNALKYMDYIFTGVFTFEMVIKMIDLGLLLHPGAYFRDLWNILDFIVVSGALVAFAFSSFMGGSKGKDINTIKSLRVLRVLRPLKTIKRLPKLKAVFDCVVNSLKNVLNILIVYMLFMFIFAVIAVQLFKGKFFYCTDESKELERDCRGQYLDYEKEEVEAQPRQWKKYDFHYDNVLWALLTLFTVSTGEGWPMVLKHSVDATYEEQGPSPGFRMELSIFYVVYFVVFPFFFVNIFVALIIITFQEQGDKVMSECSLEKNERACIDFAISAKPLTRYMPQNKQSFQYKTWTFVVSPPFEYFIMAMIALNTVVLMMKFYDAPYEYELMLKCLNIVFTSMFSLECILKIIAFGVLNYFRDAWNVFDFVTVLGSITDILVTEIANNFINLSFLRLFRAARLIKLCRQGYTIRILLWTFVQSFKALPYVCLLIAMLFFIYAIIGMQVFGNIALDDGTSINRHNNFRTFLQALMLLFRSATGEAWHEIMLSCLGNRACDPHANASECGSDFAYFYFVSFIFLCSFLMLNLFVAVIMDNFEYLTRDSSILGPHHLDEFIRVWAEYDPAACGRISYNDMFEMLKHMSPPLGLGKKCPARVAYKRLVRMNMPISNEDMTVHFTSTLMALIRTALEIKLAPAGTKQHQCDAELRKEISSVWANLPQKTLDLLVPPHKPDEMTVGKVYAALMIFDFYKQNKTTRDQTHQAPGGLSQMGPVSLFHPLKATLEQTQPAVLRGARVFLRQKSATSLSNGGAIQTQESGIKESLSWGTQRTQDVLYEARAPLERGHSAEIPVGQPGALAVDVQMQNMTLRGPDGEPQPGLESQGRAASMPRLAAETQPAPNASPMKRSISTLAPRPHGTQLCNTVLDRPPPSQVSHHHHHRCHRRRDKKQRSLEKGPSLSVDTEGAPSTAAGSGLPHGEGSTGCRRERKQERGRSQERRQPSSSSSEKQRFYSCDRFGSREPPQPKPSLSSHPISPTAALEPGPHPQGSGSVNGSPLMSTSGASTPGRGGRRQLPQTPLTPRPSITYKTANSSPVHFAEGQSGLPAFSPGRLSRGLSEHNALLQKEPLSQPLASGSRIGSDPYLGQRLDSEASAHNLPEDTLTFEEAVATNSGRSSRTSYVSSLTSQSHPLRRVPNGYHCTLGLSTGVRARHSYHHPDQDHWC
Protocol: (§1) Antagonist activity was measured using whole cell patch recordings on human embryonic kidney cells either stably or transiently expressing rat α1B+α2b+β1b channels (N-type channels) with 5 mM barium as a charge carrier.
(§2) For transient expression, host cells, such as human embryonic kidney cells, HEK 293 (ATCC# CRL 1573) were grown in standard DMEM medium supplemented with 2 mM glutamine and 10% fetal bovine serum. HEK 293 cells were transfected by a standard calcium-phosphate-DNA coprecipitation method using the rat α1B+β1b+α2δ N-type calcium channel subunits in a vertebrate expression vector (for example, see Current Protocols in Molecular Biology).
(§3) After an incubation period of from 24 to 72 hrs the culture medium was removed and replaced with external recording solution (see below). Whole cell patch clamp experiments were performed using an Axopatch 200B amplifier (Axon Instruments, Burlingame, Calif.) linked to an IBM compatible personal computer equipped with pCLAMP software. Borosilicate glass patch pipettes (Sutter Instrument Co., Novato, Calif.) were polished (Microforge, Narishige, Japan) to a resistance of about 4 MΩ when filled with cesium methanesulfonate internal solution (composition in MM: 109 CsCH3SO4, 4 MgCl2, 9 EGTA, 9 HEPES, pH 7.2). Cells were bathed in 5 mM Ba^++ (in mM: 5 BaCl2, 1 MgCl2, 10 HEPES, 40 tetraethylammonium chloride, 10 glucose, 87.5 CsCl pH 7.2). Current data shown were elicited by a train of 100 ms test pulses at 0.066 Hz from −100 mV and/or −80 mV to various potentials (min. −20 mV, max. +30 mV). Drugs were perfused directly into the vicinity of the cells using a microperfusion system.
(§4) Normalized dose-response curves were fit (Sigmaplot 4.0, SPSS Inc., Chicago, Ill.) by the Hill equation to determine IC50 values. Steady-state inactivation curves were plotted as the normalized test pulse amplitude following 5 s inactivating prepulses at +10 mV increments. Inactivation curves were fit (Sigmaplot 4.0) with the Boltzman equation, Ipeak (normalized)=1/(1+exp((V−Vh)z/25.6)), where V and Vh are the conditioning and half inactivation potentials, respectively, and z is the slope factor.
(§5) The method of Example 1 was followed with slight modifications as will be apparent from the description below.
(§6) N-type calcium channel blocking activity was assayed in human embryonic kidney cells, HEK 293, stably transfected with the rat brain N-type calcium channel subunits (α1B+α2δ+β1b cDNA subunits). Alternatively, N-type calcium channels (α1B+α2δ+β1b cDNA subunits), L-type channels (α1C+α2δ+β1b cDNA subunits) and P/Q-type channels (α1A+α2δ+β1b cDNA subunits) were transiently expressed in HEK 293 cells. […]

[2] = test system: rat brain N-type calcium channel (α1B+α2δ+β1b); assay: as above; conditions: N-type, L-type and P/Q-type channels compared
Protocol: as §1, §2, §3, §4, §5, §6

[3] = biological target: T2, P/Q-type channels (α1A+α2δ+β1b) (Homo sapiens, UniProt O00555); assay: Whole cell patch clamp block of P/Q-type calcium channels transiently expressed in HEK 293 cells; conditions: step to +20 mV from holding potential −80 mV, 0.1 Hz, 5 mM barium external solution
T2 construct: expressed in transfected cells; host or cells: HEK 293 (transient)
T2 sequence (O00555 whole entry): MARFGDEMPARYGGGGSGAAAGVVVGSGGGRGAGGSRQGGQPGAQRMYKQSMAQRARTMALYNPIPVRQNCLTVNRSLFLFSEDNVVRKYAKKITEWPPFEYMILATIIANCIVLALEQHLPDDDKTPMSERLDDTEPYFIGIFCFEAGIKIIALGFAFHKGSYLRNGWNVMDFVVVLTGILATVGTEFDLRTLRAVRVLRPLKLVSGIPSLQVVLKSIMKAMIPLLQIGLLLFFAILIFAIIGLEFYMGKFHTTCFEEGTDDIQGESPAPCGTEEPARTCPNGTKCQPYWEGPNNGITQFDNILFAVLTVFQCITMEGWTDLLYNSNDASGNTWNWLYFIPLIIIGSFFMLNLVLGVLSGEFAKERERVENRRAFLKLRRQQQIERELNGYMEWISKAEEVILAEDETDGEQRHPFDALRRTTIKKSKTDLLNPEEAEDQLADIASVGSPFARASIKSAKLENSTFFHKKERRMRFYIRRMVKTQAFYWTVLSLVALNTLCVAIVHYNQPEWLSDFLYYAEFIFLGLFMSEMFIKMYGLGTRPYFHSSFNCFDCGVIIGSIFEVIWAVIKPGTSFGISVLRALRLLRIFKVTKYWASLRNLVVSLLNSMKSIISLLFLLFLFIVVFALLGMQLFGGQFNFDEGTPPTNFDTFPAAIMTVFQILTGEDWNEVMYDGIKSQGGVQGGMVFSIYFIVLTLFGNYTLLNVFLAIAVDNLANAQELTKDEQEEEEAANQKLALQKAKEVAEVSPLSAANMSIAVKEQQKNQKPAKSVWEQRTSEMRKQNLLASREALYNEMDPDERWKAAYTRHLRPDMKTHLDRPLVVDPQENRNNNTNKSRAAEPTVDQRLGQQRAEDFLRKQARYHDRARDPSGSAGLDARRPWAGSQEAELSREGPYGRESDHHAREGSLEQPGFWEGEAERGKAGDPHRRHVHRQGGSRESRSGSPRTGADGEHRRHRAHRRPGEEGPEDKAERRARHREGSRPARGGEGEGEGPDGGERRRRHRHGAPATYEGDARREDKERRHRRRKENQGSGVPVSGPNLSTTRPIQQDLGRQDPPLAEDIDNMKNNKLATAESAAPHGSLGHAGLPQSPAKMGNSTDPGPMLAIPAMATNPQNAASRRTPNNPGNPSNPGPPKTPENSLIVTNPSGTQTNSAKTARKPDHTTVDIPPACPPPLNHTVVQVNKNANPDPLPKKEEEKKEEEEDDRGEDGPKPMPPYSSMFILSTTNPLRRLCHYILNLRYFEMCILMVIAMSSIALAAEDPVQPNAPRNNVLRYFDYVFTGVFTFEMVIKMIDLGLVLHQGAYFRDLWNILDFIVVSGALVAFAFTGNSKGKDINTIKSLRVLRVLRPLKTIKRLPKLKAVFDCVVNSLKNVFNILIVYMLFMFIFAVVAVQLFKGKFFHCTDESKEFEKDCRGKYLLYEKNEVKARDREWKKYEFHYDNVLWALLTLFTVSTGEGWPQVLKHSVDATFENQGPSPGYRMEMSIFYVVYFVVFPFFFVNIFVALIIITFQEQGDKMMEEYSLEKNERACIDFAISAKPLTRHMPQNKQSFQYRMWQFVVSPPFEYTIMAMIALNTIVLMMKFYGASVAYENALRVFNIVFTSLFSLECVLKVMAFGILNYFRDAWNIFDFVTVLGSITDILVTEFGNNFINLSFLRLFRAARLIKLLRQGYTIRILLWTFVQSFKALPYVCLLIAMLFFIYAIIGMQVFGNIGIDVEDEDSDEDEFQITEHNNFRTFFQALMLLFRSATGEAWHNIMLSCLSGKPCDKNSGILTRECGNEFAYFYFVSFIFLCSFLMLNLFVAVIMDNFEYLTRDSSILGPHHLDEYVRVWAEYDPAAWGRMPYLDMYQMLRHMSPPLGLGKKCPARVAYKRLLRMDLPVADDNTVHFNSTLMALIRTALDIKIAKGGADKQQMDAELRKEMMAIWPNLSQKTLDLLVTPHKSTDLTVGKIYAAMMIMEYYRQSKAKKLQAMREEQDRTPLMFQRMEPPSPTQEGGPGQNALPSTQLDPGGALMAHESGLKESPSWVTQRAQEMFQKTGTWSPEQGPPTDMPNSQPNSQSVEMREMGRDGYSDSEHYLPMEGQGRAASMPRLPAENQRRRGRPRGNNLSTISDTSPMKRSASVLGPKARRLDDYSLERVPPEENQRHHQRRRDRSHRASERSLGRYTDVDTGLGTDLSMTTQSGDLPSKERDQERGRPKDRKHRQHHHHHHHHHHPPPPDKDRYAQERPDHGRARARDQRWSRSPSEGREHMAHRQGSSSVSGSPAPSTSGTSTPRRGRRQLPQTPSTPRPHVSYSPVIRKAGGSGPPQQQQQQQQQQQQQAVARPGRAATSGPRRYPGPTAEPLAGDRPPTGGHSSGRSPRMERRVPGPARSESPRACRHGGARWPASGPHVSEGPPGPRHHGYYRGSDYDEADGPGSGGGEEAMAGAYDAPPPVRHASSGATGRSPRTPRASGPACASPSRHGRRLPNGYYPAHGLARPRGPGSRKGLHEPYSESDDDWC
Protocol: as §5
(§7) N-type calcium channel blocking activity was assayed in human embryonic kidney cells, HEK 293, stably transfected with the rat brain N-type calcium channel subunits (α1B+α2δ+β1b cDNA subunits). Alternatively, N-type calcium channels (α1B+α2δ+β1b cDNA subunits), L-type channels (α1C+α2δ+β1b cDNA subunits) and P/Q-type channels (α1A+α2δ+β1b cDNA subunits) were transiently expressed in HEK 293 cells. Briefly, cells were cultured in Dulbecco's modified eagle medium (DMEM) supplemented with 10% fetal bovine serum, 200 U/ml penicillin and 0.2 mg/ml streptomycin at 37° C. with 5% CO2. At 85% confluency cells were split with 0.25% trypsin/1 mM EDTA and plated at 10% confluency on glass coverslips. At 12 hours the medium was replaced and the cells transiently transfected using a standard calcium phosphate protocol and the appropriate calcium channel cDNAs. Fresh DMEM was supplied and the cells transferred to 28° C./ 5% CO2. Cells were incubated for 1 to 2 days to whole cell recording.
(§8) Whole cell patch clamp experiments were performed using an Axopatch 200B amplifier (Axon Instruments, Burlingame, Calif.) linked to a personal computer equipped with pCLAMP software. […] Data were analyzed using Clampfit (Axon Instruments) and SigmaPlot 4.0 (Jandel Scientific).

[4] = biological target: T3, L-type channels (α1C+α2δ+β1b) (Homo sapiens, UniProt Q13936); assay: Whole cell patch clamp block of L-type calcium channels transiently expressed in HEK 293 cells; conditions: step to +20 mV from holding potential −80 mV, 0.1 Hz, 5 mM barium external solution
T3 construct: expressed in transfected cells; host or cells: HEK 293 (transient)
Protocol: as §5, §7, §8

Row | IC50 [1] [µM] | IC50 [3] [µM] | IC50 [4] [µM] | SMILES | selectivity for N-type channels versus L-type and P/Q-type (in words) [2]
1 | 0.14 | 6.4 | 2.06 | O=C(CCOc1ccc(Cl)cc1Cl)Nc1nnc(C(F)(F)F)s1 [NT044, N-2-(5-trifluoromethyl-1,3,4-thiadiazolyl)-3-(2,4-dichlorophenoxy) propionyl amide] | somewhat selective for N-type channels
2 | 0.13 | 6.8 | 1.91 | O=C(COC(c1ccc(Cl)cc1)c1ccc(Cl)cc1)Nc1ncc([N+](=O)[O-])s1 [NT051] | somewhat selective for N-type channels
